Experimental data reported in US11447505B1, “Pyrrolo[2,3-b]pyridine compounds and their use in the treatment of cancer” (priority 2017, dated 2022).
pKi: −log10 of the molar value.

Experiments:
[1] = target: MRCKβ (Homo sapiens (Human), UniProt Q9Y5S2); assay: MRCKβ kinase assay (IMAP fluorescence polarization); assay type: biochemical; conditions: 1 μM ATP; read-out: MRCK-B Average Ki
Source text: MRCKα, MRCKβ, ROCK1 and ROCK2 Kinase Assays

[2] = target: ROCK2 (Homo sapiens (Human), UniProt O75116); assay: ROCK2 kinase assay (IMAP fluorescence polarization); assay type: biochemical; conditions: 1 μM ATP; read-out: ROCK2 Average Ki
[3] = target: ROCK1 (Homo sapiens (Human), UniProt Q13464); conditions: read-out: ROCK1 Average Ki; 1 μM ATP
Sequence of ROCK1 (Q13464 2-1354 limits assumed): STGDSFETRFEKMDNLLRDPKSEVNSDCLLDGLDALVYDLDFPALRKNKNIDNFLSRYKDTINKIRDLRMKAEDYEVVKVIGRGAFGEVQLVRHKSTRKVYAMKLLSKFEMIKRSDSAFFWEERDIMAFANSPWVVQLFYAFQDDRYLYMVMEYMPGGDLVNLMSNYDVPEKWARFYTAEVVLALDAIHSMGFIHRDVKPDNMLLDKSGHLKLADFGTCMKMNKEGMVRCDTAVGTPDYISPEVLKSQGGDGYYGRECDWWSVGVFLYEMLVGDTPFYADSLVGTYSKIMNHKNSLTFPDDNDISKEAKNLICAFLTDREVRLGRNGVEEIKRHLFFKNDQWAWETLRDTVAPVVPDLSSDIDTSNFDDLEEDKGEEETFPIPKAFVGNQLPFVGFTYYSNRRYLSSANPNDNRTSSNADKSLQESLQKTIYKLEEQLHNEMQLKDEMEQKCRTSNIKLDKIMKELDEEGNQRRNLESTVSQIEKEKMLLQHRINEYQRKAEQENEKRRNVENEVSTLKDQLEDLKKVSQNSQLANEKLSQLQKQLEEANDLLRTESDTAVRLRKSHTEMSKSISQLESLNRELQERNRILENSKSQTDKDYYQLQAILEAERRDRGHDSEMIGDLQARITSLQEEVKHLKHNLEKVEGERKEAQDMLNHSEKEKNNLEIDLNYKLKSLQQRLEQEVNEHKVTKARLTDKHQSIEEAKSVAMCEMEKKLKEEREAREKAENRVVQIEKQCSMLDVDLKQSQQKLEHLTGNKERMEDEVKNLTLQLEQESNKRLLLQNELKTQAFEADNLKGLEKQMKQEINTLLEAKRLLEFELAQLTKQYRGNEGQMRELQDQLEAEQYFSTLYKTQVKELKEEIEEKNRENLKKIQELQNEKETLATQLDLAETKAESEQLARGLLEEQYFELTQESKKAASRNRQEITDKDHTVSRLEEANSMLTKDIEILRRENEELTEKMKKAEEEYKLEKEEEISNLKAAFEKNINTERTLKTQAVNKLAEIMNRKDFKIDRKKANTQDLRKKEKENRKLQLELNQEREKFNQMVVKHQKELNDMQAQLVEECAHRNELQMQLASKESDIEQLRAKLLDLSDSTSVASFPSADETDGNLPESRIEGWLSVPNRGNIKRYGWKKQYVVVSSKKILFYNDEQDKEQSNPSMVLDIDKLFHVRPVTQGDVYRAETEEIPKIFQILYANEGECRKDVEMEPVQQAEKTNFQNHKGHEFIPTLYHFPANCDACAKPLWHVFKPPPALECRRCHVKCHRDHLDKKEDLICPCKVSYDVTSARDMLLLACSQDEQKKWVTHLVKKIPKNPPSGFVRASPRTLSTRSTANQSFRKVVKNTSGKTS
Protocol: MRCKα, MRCKβ, ROCK1 and ROCK2 assays were performed using an IMAP fluorescence polarization assay format (Molecular Devices Inc.). […] Typically, dose response analyses were performed over concentration ranges from 0.005-100 μM. […] After 30 min incubation to allow binding reagent to bind phosphorylated peptide, fluorescence polarization was measured on a Tecan Saphire^2 plate reader at excitation (470 nm) and emission (530 nm) wavelengths.

Sequence of ROCK2 (O75116 whole entry): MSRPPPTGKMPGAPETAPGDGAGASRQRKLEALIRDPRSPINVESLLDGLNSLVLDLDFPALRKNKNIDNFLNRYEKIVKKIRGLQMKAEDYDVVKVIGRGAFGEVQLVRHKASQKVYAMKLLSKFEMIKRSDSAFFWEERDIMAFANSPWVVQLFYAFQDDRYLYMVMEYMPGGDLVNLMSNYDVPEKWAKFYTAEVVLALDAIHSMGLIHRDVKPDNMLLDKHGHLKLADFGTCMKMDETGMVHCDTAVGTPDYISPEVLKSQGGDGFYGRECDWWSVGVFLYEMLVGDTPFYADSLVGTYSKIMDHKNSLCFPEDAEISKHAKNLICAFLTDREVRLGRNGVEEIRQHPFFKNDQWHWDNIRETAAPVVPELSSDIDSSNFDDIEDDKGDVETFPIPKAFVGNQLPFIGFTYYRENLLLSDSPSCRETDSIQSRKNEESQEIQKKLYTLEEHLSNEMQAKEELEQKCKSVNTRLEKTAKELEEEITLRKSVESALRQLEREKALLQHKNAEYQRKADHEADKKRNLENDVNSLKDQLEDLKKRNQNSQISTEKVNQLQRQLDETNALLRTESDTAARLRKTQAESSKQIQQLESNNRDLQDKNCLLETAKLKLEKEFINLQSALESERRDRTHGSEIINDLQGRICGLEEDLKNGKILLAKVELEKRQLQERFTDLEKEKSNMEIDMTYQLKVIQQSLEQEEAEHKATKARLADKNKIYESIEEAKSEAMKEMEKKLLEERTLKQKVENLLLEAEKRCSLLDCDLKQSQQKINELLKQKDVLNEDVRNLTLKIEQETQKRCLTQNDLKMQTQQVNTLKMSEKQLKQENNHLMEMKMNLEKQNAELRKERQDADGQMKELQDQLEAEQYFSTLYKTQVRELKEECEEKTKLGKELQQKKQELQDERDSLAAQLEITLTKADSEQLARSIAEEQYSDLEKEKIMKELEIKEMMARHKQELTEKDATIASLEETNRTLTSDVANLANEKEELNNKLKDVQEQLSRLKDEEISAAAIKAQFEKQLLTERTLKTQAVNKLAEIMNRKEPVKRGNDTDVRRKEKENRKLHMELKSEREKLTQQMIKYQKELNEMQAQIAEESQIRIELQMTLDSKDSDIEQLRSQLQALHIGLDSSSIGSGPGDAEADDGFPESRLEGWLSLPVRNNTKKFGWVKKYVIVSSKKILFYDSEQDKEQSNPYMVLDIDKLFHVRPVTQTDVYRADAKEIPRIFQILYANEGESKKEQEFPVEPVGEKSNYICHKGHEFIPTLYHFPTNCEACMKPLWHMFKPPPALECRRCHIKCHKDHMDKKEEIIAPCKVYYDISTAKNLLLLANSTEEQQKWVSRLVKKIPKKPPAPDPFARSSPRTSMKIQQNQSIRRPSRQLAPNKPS

pKi [2] | Compound | pKi [1] | pKi [3]
6.24 | OCCN[C@H]1CCCN(c2ccnc3[nH]cc(-c4cncnc4)c23)C1 [Example E56, 2-[[(3S)-1-(3-pyrimidin-5-yl-1H-pyrrolo[2,3-b]pyridin-4-yl)-3-piperidyl]amino]ethanol] | 8.65 | 5.86
6.65 | CN[C@H]1CCCN(c2ccnc3[nH]cc(C#N)c23)C1 [Example E74, 4-[(3S)-3-(methylamino)-1-piperidyl]-1H-pyrrolo[2,3-b]pyridine-3-carbonitrile] | 8.21 | 6.20
6.94 | c1cc(N2CCCCC2)c2c(-c3ccc4[nH]ncc4c3)c[nH]c2n1 [Example E19, 3-(1H-indazol-5-yl)-4-(1-piperidyl)-1H-pyrrolo[2,3-b]pyridine] | 6.67 | 6.84
6.40 | CCN1CCCC[C@]12CCCN(c1ccnc3[nH]cc(-c4cncnc4)c13)C2 [Example E208, (6R)-1-ethyl-8-(3-pyrimidin-5-yl-1H-pyrrolo[2,3-b]pyridin-4-yl)-1,8-diazaspiro[5.5]undecane] | 8.01 | 5.92
6.61 | N#Cc1cc(-c2c[nH]c3nccc(N4CCCCC4)c23)cnc1N [Example E7, 2-amino-5-[4-(1-piperidyl)-1H-pyrrolo[2,3-b]pyridin-3-yl]pyridine-3-carbonitrile] | 6.45 | 6.30
6.66 | CNCC1CCCN(c2ccnc3[nH]cc(-c4cncnc4)c23)C1 (centres unmarked) [Example E90, N-methyl-1-[1-(3-pyrimidin-5-yl-1H-pyrrolo[2,3-b]pyridin-4-yl)-3-piperidyl]methanamine] | 8.22 | 6.83
5.49 | Cn1ccc(-c2c[nH]c3nccc(N4CCCCC4)c23)n1 [Example E22, 3-(1-methylpyrazol-3-yl)-4-(1-piperidyl)-1H-pyrrolo[2,3-b]pyridine] | 6.18 | 5.00
5.82 | c1ccc(-c2c[nH]c3nccc(N4CCC4)c23)nc1 [Example E25, 4-(azetidin-1-yl)-3-(2-pyridyl)-1H-pyrrolo[2,3-b]pyridine] | 6.75 | 5.00
5.49 | N#Cc1cncc(-c2c[nH]c3nccc(N4CCCCC4)c23)c1 [Example E8, 5-[4-(1-piperidyl)-1H-pyrrolo[2,3-b]pyridin-3-yl]pyridine-3-carbonitrile] | 6.27 | 5.00
7.44 | CN[C@H]1CCCN(c2ccnc3[nH]cc(-c4cnsc4)c23)C1 [Example E67, (3S)-1-(3-isothiazol-4-yl-1H-pyrrolo[2,3-b]pyridin-4-yl)-N-methyl-piperidin-3-amine] | 9.56 | 6.96
 | c1csc(-c2c[nH]c3nccc(N4CC[C@]5(CCCN5)C4)c23)n1 [Example E135, 2-[4-[(5R)-1,7-diazaspiro[4.4]nonan-7-yl]-1H-pyrrolo[2,3-b]pyridin-3-yl]thiazole] | 7.99 | 4.00
 | c1cc(-c2c[nH]c3nccc(N4CCC5(CCCCN5)C4)c23)cnn1 (centres unmarked) [Example E162, 2-(3-pyridazin-4-yl-1H-pyrrolo[2,3-b]pyridin-4-yl)-2,6-diazaspiro[4.5]decane] | 9.66 | 7.77
 | Cc1cnc(-c2c[nH]c3nccc(N4CCC[C@]5(CCCCN5)C4)c23)s1 [Example E148, 2-[4-[(6R)-1,8-diazaspiro[5.5]undecan-8-yl]-1H-pyrrolo[2,3-b]pyridin-3-yl]-5-methyl-thiazole] | 8.40 | 4.00
 | c1ncc(-c2c[nH]c3nccc(N4CCCNCC4)c23)cn1 [Example E44, 4-(1,4-diazepan-1-yl)-3-pyrimidin-5-yl-1H-pyrrolo[2,3-b]pyridine] | 8.35 | 6.34
 | Cc1csc(-c2c[nH]c3nccc(N4CCCC5(CCCCN5)C4)c23)n1 (centres unmarked) [Example E158, 2-[4-(1,8-diazaspiro[5.5]undecan-8-yl)-1H-pyrrolo[2,3-b]pyridin-3-yl]-4-methyl-thiazole] | 9.44 | 4.00
 | c1csc(-c2c[nH]c3nccc(N4CCCC5(CCCCN5)C4)c23)n1 (centres unmarked) [Example E149, 2-[4-(1,8-diazaspiro[5.5]undecan-8-yl)-1H-pyrrolo[2,3-b]pyridin-3-yl]thiazole] | 10.20 | 6.52
 | c1cc(-c2c[nH]c3nccc(N4CCC5(CCNC5)C4)c23)cnn1 (centres unmarked) [Example E164, 4-(2,7-diazaspiro[4.4]nonan-2-yl)-3-pyridazin-4-yl-1H-pyrrolo[2,3-b]pyridine] | 8.95 | 9.35
 | Cc1ncc(-c2c[nH]c3nccc(N4CCCC5(CCCCN5)C4)c23)cn1 (centres unmarked) [Example E166, 8-[3-(2-methylpyrimidin-5-yl)-1H-pyrrolo[2,3-b]pyridin-4-yl]-1,8-diazaspiro[5.5]undecane] | 9.10 | 4.00

pKi [2] | Compound | pKi [1] | pKi [3]
 | c1csc(-c2c[nH]c3nccc(N4CC[C@]5(CCCCN5)C4)c23)n1 [Example E132, 2-[4-[(5R)-2,6-diazaspiro[4.5]decan-2-yl]-1H-pyrrolo[2,3-b]pyridin-3-yl]thiazole] | 8.39 | 4.00
 | Cc1cnc(-c2c[nH]c3nccc(N4CCCC5(CCCN5)C4)c23)s1 (centres unmarked) [Example E143, 2-[4-(1,9-diazaspiro[4.5]decan-9-yl)-1H-pyrrolo[2,3-b]pyridin-3-yl]-5-methyl-thiazole] | 9.05 | 4.00
 | Cc1cnc(-c2c[nH]c3nccc(N4CCC5(CCCCN5)C4)c23)s1 (centres unmarked) [Example E144, 2-[4-(2,6-diazaspiro[4.5]decan-2-yl)-1H-pyrrolo[2,3-b]pyridin-3-yl]-5-methyl-thiazole] | 9.81 | 6.41
 | NC1CN(c2ccnc3[nH]cc(-c4ccncn4)c23)CCC1F (centres unmarked) [Example E42, 4-fluoro-1-(3-pyrimidin-4-yl-1H-pyrrolo[2,3-b]pyridin-4-yl)piperidin-3-amine] | 9.49 | 7.10
 | Cc1cnc(-c2c[nH]c3nccc(N4CCC5(CCN5)C4)c23)s1 (centres unmarked) [Example E152, 2-[4-(1,7-diazaspiro[3.4]octan-7-yl)-1H-pyrrolo[2,3-b]pyridin-3-yl]-5-methyl-thiazole] | 8.33 | 4.00
 | c1ccc(-c2c[nH]c3nccc(N4CCC5(CCCN5)C4)c23)nc1 (centres unmarked) [Example E137, 4-(1,7-diazaspiro[4.4]nonan-7-yl)-3-(2-pyridyl)-1H-pyrrolo[2,3-b]pyridine] | 8.55 | 4.00
 | Cc1nccc(-c2c[nH]c3nccc(N4CCCC5(CCCCN5)C4)c23)n1 (centres unmarked) [Example E160, 8-[3-(2-methylpyrimidin-4-yl)-1H-pyrrolo[2,3-b]pyridin-4-yl]-1,8-diazaspiro[5.5]undecane] | 8.56 | 4.00
 | c1cc(-c2c[nH]c3nccc(N4CCC[C@]5(CCCCN5)C4)c23)cnn1 [Example E173, (6R)-8-(3-pyridazin-4-yl-1H-pyrrolo[2,3-b]pyridin-4-yl)-1,8-diazaspiro[5.5]undecane] | 8.93 | 6.53
 | N#Cc1c[nH]c2nccc(N3CCCC4(CCCCN4)C3)c12 (centres unmarked) [Example E165, 4-(1,8-diazaspiro[5.5]undecan-8-yl)-1H-pyrrolo[2,3-b]pyridine-3-carbonitrile] | 9.60 | 6.76
 | c1ncc(-c2c[nH]c3nccc(N4CC[C@@]5(CCCN5)C4)c23)cn1 [Example E124, 4-[(5S)-1,7-diazaspiro[4.4]nonan-7-yl]-3-pyrimidin-5-yl-1H-pyrrolo[2,3-b]pyridine] | 9.02 | 7.11
 | c1cc(-c2c[nH]c3nccc(O[C@@H]4CCCNC4)c23)ncn1 [Example E213, 3-pyrimidin-4-yl-4-[[(3R)-3-piperidyl]oxy]-1H-pyrrolo[2,3-b]pyridine] | 9.84 | 8.42
 | Cc1cnc(-c2c[nH]c3nccc(N4CCCC5(CCN5)C4)c23)s1 (centres unmarked) [Example E153, 2-[4-(1,8-diazaspiro[3.5]nonan-8-yl)-1H-pyrrolo[2,3-b]pyridin-3-yl]-5-methyl-thiazole] | 8.03 | 4.00
 | N#Cc1c[nH]c2nccc(N3CCC4(CCCN4)C3)c12 (centres unmarked) [Example E185, 4-(1,7-diazaspiro[4.4]nonan-7-yl)-1H-pyrrolo[2,3-b]pyridine-3-carbonitrile] | 8.72 | 7.87
 | 7-(3-pyridazin-4-yl-1H-pyrrolo[2,3-b]pyridin-4-yl)-2,7-diazaspiro[4.5]decane [Example E163] | 8.62 | 7.78
 | c1ccc(-c2c[nH]c3nccc(N4CCC[C@]5(CCCCN5)C4)c23)nc1 [Example E140, (6R)-8-[3-(2-pyridyl)-1H-pyrrolo[2,3-b]pyridin-4-yl]-1,8-diazaspiro[5.5]undecane] | 8.13 | 7.01
 | N-[(3S)-1-(3-pyridazin-4-yl-1H-pyrrolo[2,3-b]pyridin-4-yl)-3-piperidyl]acetamide [Example E205] | 8.35 | 6.95
 | c1cc(-c2c[nH]c3nccc(N4CCCC5(CNC5)C4)c23)cnn1 [Example E156, 4-(2,6-diazaspiro[3.5]nonan-6-yl)-3-pyridazin-4-yl-1H-pyrrolo[2,3-b]pyridine] | 8.77 | 7.24

Compound | pKi [2] | pKi [1] | pKi [3]
N#Cc1c[nH]c2nccc(N3CCNCC3)c12 [Example E34, 4-piperazin-1-yl-1H-pyrrolo[2,3-b]pyridine-3-carbonitrile] | 7.62 | 7.28 | 7.36
N[C@@H]1CCCN(c2ccnc3[nH]cc(-c4cncnc4)c23)C1 [Example E64, (3R)-1-(3-pyrimidin-5-yl-1H-pyrrolo[2,3-b]pyridin-4-yl)piperidin-3-amine] | 6.41 | 7.83 | 6.78
c1ncc(-c2c[nH]c3nccc(OCC4CCCNC4)c23)cn1 (centres unmarked) [Example E220, 4-(3-piperidylmethoxy)-3-pyrimidin-5-yl-1H-pyrrolo[2,3-b]pyridine] | 7.39 | 8.97 | 7.47
